Experimental data published in PubChem BioAssay AID2060617 (Molecular Pharmacology Branch, DTP, NCI, 2025).
pIC50: −log10 of the molar value.

Tested on: 485368-065-R4-J2-PDC spheroids with HUVEC/MSC, viability
Experiment: Anticancer human tumor 485368-065-R4-J2-PDC patient-derived pancreatic carcinoma cell line growth inhibition [CLK]
Conditions: for pIC50: curve of first compound; for viability, T/C: stronger effect = lower value
Method in brief: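 Multi-cell-type spheroids combined patient-derived tumor cells with HUVEC endothelial cells and human mesenchymal stem cells. Paired agents were dosed in half-log steps down from about clinical Cmax, or from 10 microM where Cmax was unknown.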

[1] = second compound 0.0316 µM, first compound 0.0316 µM
[2] = second compound 0.0316 µM, first compound 0.1 µM
[3] = second compound 0.0316 µM, first compound 0.316 µM
[4] = second compound 0.0316 µM, first compound 1 µM
[5] = second compound 0.1 µM, first compound 0.0316 µM
[6] = second compound 0.1 µM, first compound 0.1 µM
[7] = second compound 0.1 µM, first compound 0.316 µM
[8] = second compound 0.1 µM, first compound 1 µM
[9] = second compound 0.316 µM, first compound 0.0316 µM
[10] = second compound 0.316 µM, first compound 0.1 µM
[11] = second compound 0.316 µM, first compound 0.316 µM
[12] = second compound 0.316 µM, first compound 1 µM
[13] = second compound 1 µM, first compound 0.0316 µM
[14] = second compound 1 µM, first compound 0.1 µM
[15] = second compound 1 µM, first compound 0.316 µM
[16] = second compound 1 µM, first compound 1 µM
[17] = second compound 3.16 µM, first compound 0.0316 µM
[18] = second compound 3.16 µM, first compound 0.1 µM
[19] = second compound 3.16 µM, first compound 0.316 µM
[20] = second compound 3.16 µM, first compound 1 µM
[21] = second compound 10 µM, first compound 0.0316 µM
[22] = second compound 10 µM, first compound 0.1 µM
[23] = second compound 10 µM, first compound 0.316 µM
[24] = second compound 10 µM, first compound 1 µM
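Note: spheroids exposed to compounds for seven days.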
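Throughout, for viability, T/C: 100% = DMSO vehicle control wells.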

O=c1[nH]cc(F)c(=O)[nH]1 + CNC(=O)c1ccc(Nc2nc(OC3CCCC3)c3c(-c4ccc5nc(C)oc5c4)c[nH]c3n2)c(OC)c1
pIC50 (second compound 0.0316 µM): < 5.00 | pIC50 (second compound 0.1 µM): < 5.00 | pIC50 (second compound 0.316 µM): < 5.00 | pIC50 (second compound 1 µM): < 5.00 | pIC50 (second compound 3.16 µM): < 5.00 | pIC50 (second compound 10 µM): < 5.00 | viability, T/C [1]: 82% | viability, T/C [2]: 98.8% | viability, T/C [3]: 80.4% | viability, T/C [4]: 97.6% | viability, T/C (second compound 0.0316 µM, first compound 3.16 µM): 95.1% | viability, T/C (second compound 0.0316 µM, first compound 10 µM): 81% | viability, T/C [5]: 95.5% | viability, T/C [6]: 99.2% | viability, T/C [7]: 97% | viability, T/C [8]: 103% | viability, T/C (second compound 0.1 µM, first compound 3.16 µM): 93.6% | viability, T/C (second compound 0.1 µM, first compound 10 µM): 82.3% | viability, T/C [9]: 81.4% | viability, T/C [10]: 80.7% | viability, T/C [11]: 81.3% | viability, T/C [12]: 82% | viability, T/C (second compound 0.316 µM, first compound 3.16 µM): 87.3% | viability, T/C (second compound 0.316 µM, first compound 10 µM): 74.2% | viability, T/C [13]: 79.2% | viability, T/C [14]: 83.7% | viability, T/C [15]: 75% | viability, T/C [16]: 75.9% | viability, T/C (second compound 1 µM, first compound 3.16 µM): 71% | viability, T/C (second compound 1 µM, first compound 10 µM): 62.8% | viability, T/C [17]: 69.4% | viability, T/C [18]: 70.4% | viability, T/C [19]: 69.5% | viability, T/C [20]: 73.3% | viability, T/C (second compound 3.16 µM, first compound 3.16 µM): 68.1% | viability, T/C (second compound 3.16 µM, first compound 10 µM): 64.1% | viability, T/C [21]: 63.3% | viability, T/C [22]: 69.6% | viability, T/C [23]: 72.1% | viability, T/C [24]: 64.1% | viability, T/C (second compound 10 µM, first compound 3.16 µM): 67% | viability, T/C (second compound 10 µM, first compound 10 µM): 51.8%

CCc1c2c(nc3ccc(O)cc13)-c1cc3c(c(=O)n1C2)COC(=O)[C@]3(O)CC + CNC(=O)c1ccc(Nc2nc(OC3CCCC3)c3c(-c4ccc5nc(C)oc5c4)c[nH]c3n2)c(OC)c1
pIC50 (second compound 0.0316 µM): 8.43 | pIC50 (second compound 0.1 µM): > 8.50 | pIC50 (second compound 0.316 µM): > 8.50 | pIC50 (second compound 1 µM): > 8.50 | pIC50 (second compound 3.16 µM): > 8.50 | pIC50 (second compound 10 µM): > 8.50 | viability, T/C (second compound 0.0316 µM, first compound 0.00316 µM): 53.6% | viability, T/C (second compound 0.0316 µM, first compound 0.01 µM): 27% | viability, T/C [1]: 13.1% | viability, T/C [2]: 7.46% | viability, T/C [3]: 10.5% | viability, T/C [4]: 16% | viability, T/C (second compound 0.1 µM, first compound 0.00316 µM): 46.3% | viability, T/C (second compound 0.1 µM, first compound 0.01 µM): 27% | viability, T/C [5]: 12.6% | viability, T/C [6]: 7.47% | viability, T/C [7]: 8.97% | viability, T/C [8]: 17% | viability, T/C (second compound 0.316 µM, first compound 0.00316 µM): 41.9% | viability, T/C (second compound 0.316 µM, first compound 0.01 µM): 20.4% | viability, T/C [9]: 11.7% | viability, T/C [10]: 7.63% | viability, T/C [11]: 9% | viability, T/C [12]: 16.2% | viability, T/C (second compound 1 µM, first compound 0.00316 µM): 25.8% | viability, T/C (second compound 1 µM, first compound 0.01 µM): 13.5% | viability, T/C [13]: 8.98% | viability, T/C [14]: 6.66% | viability, T/C [15]: 10.7% | viability, T/C [16]: 18.1% | viability, T/C (second compound 3.16 µM, first compound 0.00316 µM): 20.9% | viability, T/C (second compound 3.16 µM, first compound 0.01 µM): 11.3% | viability, T/C [17]: 9.77% | viability, T/C [18]: 7.07% | viability, T/C [19]: 11.5% | viability, T/C [20]: 18.9% | viability, T/C (second compound 10 µM, first compound 0.00316 µM): 19.4% | viability, T/C (second compound 10 µM, first compound 0.01 µM): 13.9% | viability, T/C [21]: 7.33% | viability, T/C [22]: 7.37% | viability, T/C [23]: 15.9% | viability, T/C [24]: 20.8%
